Experimental findings from patent US6403112B2, “Ectoin and ectoin derivatives as moisturizers in cosmetics” (Merck Patent Gesellschaft mit beschrankter, priority 1993, dated 2002) are described below.

This data set in a line: Water absorption capacity at 65% relative atmospheric humidity. The format is physicochemical. The settings on record: relative atmospheric humidity of 65%; 1 g of anhydrous substance kept in sealed chamber until weight is constant. The method, then: A) Water absorption capacity The water absorption capacity of the compound of Example 1 is determined at a relative atmospheric humidity of 65%. The control substances used are in each case glycerol and propylene glycol. In each case 1 g of the anhydrous substance is kept in a sealed chamber until the weight is constant. The water absorption capacity is calculated as follows: [formula] Ectoin has a water absorption of 25% and, in comparison with glycerol or propylene glycol (60 and 45%, respectively) a less pronounced hygroscopic behavior. However, with regard to its use as a moisturizer, the dehydrating effect known from unduly high glycerol concentrations can be ruled out.

Take `CC1=N[C@H](C(=O)O)CCN1` [Ectoin, (S)-1,4,5,6-tetrahydro-2-methyl-4-pyrimidinecarboxylic acid]: the water absorption turned out to be 25%. The molecule `OCC(O)CO` [glycerol] had a water absorption of 60%. Under `CC(O)CO` (stereo not drawn) [propylene glycol] stands 45%.
